Measured values taken from ChEMBL document CHEMBL1909046, “DrugMatrix in vitro pharmacology data”.

Experiments:
[1] = molecular target: 5-hydroxytryptamine receptor 4 (Cavia porcellus, UniProt O70528); type: cell membranes, Dunkin-Hartley, Striatum, Membrane; note: in other assays of this panel Not Active means under 50% inhibition at 10 µM
[2] = DRUGMATRIX: Sigma2 radioligand binding (ligand: [3H] Ifenprodil); type: cell membranes, Rattus norvegicus, Wistar, Brain, Membrane; settings: Not Active = under 50% inhibition at 10 µM
[3] = molecular target: T1, Vasoactive intestinal polypeptide receptor 1 (Homo sapiens, UniProt P32241); type: cell membranes, Membrane; settings: ht-29; note: in other assays of this panel Not Active means under 50% inhibition at 10 µM
T1 sequence (P32241 whole entry): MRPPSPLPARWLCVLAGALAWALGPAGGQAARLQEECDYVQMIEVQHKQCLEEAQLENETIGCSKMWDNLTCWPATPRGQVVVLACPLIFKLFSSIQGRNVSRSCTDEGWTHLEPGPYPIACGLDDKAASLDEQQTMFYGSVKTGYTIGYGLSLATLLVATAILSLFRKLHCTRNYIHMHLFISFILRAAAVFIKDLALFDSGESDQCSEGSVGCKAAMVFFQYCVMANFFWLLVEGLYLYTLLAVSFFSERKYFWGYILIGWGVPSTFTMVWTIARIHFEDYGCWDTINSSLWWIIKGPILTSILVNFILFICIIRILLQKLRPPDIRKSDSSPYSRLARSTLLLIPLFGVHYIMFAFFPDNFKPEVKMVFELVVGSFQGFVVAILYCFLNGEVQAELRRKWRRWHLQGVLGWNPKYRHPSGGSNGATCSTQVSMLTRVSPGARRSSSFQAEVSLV

Mu-type opioid receptor = Mu-type opioid receptor (Homo sapiens, UniProt P35372); assay: DRUGMATRIX: Opiate mu (OP3, MOP) radioligand binding (ligand: [3H] Diprenorphine); type: cell membranes, CHO-K1, Membrane; settings: cho-k1; Not Active = under 50% inhibition at 10 µM
[4] = molecular target: Epidermal growth factor receptor (Homo sapiens, UniProt P00533); assay: DRUGMATRIX: Protein Tyrosine Kinase, EGF Receptor enzyme inhibition (substrate: Poly(Glu:Tyr)); type: cell-based, Insect cells; settings: insect cells; Not Active = under 50% inhibition at 10 µM
Cytochrome P450 3A4 = Cytochrome P450 3A4 (Homo sapiens, UniProt P08684); settings: bti-tn-5b1-4; note: in other assays of this panel Not Active means under 50% inhibition at 10 µM
Chain of Cytochrome P450 3A4 (P08684 whole entry): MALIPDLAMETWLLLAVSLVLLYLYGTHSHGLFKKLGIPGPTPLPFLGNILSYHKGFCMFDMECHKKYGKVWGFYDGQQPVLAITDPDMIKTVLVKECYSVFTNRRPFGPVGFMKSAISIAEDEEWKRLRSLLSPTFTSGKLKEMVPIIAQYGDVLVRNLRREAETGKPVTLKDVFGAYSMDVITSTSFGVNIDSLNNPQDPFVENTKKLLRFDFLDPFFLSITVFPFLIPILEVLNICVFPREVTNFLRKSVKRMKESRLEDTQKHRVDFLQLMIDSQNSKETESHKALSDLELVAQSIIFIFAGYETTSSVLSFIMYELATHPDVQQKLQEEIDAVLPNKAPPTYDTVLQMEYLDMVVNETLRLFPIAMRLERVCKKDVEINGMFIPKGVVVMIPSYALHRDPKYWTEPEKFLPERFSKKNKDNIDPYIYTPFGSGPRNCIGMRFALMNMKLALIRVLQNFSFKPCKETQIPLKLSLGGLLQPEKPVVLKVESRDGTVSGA

Chain of Mu-type opioid receptor (P35372 whole entry): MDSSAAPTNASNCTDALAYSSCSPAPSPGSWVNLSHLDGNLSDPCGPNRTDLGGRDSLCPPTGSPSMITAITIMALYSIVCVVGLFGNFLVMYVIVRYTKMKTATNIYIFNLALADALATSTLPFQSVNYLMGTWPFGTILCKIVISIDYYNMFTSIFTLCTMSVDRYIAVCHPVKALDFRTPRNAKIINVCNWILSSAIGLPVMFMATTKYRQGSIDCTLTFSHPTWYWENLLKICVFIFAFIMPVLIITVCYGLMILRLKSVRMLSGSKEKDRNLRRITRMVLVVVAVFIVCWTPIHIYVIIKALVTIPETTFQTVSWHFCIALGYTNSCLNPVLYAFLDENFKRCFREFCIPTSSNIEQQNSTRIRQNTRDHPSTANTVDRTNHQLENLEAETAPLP
Chain of 5-hydroxytryptamine receptor 4 (O70528 whole entry): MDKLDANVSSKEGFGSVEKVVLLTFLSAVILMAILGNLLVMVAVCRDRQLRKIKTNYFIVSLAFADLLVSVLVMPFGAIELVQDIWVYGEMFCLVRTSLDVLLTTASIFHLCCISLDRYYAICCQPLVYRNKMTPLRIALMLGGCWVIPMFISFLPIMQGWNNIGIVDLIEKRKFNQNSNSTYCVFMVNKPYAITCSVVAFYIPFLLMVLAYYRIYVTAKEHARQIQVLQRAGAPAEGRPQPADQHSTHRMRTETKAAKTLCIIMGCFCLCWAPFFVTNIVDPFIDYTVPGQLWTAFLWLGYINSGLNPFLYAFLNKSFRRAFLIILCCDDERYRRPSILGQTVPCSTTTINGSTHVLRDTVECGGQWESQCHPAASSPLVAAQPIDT
Chain of Epidermal growth factor receptor (P00533 whole entry): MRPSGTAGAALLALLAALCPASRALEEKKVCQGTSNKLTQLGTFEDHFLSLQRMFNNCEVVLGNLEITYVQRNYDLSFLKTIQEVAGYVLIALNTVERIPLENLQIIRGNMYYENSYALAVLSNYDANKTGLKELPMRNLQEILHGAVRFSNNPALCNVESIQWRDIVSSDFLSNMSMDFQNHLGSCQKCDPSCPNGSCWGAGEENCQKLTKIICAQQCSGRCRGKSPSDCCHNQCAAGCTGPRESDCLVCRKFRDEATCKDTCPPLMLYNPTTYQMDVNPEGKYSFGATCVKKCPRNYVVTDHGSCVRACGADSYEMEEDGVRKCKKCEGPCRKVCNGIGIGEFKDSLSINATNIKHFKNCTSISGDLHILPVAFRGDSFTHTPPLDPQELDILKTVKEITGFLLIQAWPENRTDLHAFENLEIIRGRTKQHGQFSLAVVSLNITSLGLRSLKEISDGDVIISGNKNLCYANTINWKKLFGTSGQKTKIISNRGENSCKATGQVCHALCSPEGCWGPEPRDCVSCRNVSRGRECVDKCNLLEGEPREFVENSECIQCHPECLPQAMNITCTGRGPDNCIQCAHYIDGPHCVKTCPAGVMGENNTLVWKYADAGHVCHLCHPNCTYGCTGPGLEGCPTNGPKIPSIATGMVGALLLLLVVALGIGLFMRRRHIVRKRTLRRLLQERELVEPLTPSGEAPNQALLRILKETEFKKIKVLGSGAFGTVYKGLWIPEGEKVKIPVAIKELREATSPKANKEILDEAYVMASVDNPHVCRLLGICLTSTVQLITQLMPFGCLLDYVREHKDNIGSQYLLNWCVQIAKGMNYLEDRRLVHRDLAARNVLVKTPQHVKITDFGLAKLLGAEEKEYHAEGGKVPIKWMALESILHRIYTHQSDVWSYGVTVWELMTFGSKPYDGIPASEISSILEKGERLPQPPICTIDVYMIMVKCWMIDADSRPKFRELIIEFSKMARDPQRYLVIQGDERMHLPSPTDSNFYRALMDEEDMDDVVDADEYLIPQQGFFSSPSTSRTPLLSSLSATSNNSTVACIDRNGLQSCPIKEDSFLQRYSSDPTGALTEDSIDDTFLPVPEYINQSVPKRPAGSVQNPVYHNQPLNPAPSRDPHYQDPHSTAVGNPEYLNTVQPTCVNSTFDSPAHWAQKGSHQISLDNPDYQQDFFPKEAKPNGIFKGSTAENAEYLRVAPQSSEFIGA

CCN(CC)CCCC(C)Nc1c2ccc(Cl)cc2nc2ccc(OC)cc12 (configuration not stated) [QUINACRINE]
Not Active: IC50 [1] | IC50 [2] | Ki [2] | IC50 [3] | IC50 (Mu-type opioid receptor) | IC50 [4] | IC50 (Cytochrome P450 3A4) | Ki (Cytochrome P450 3A4)

C[C@]12C=CC(=O)C=C1CC[C@H]1[C@@H]3C[C@@H](O)[C@](O)(C(=O)CO)[C@@]3(C)C[C@H](O)[C@@]12F [TRIAMCINOLONE]
Not Active: IC50 [1] | IC50 [2] | Ki [2] | IC50 [3] | IC50 (Mu-type opioid receptor) | IC50 [4] | IC50 (Cytochrome P450 3A4) | Ki (Cytochrome P450 3A4)

CC[C@]1(O)C[C@@H]2CN(CCc3c([nH]c4ccccc34)[C@@](C(=O)OC)(c3cc4c(cc3OC)N(C)[C@H]3[C@@](O)(C(N)=O)[C@H](O)[C@]5(CC)C=CCN6CC[C@]43[C@@H]65)C2)C1 [VINDESINE]
Not Active: IC50 [1] | IC50 [2] | Ki [2] | IC50 [3] | IC50 (Mu-type opioid receptor) | IC50 [4] | IC50 (Cytochrome P450 3A4) | Ki (Cytochrome P450 3A4)

CCN(C(C)=O)c1cccc(-c2ccnc3c(C#N)cnn23)c1 [ZALEPLON]
Not Active: IC50 [1] | IC50 [2] | Ki [2] | IC50 [3] | IC50 (Mu-type opioid receptor) | IC50 [4] | IC50 (Cytochrome P450 3A4) | Ki (Cytochrome P450 3A4)
